The values that follow come from publication doi:10.1101/2023.08.28.555062, “Discovery of 2-amide-3-methylester thiophenes that target SARS-CoV-2 Mac1 and repress coronavirus replication, validating Mac1 as an anti-viral target” (bioRxiv, 2023).

pIC50: −log10 of the molar value. “Also recorded” adds a separate entry of the source. Like-named read-outs stand apart in the source and are kept apart here. Bounds are passed on as bounds.

The target in data set [1] is T1, SARS-CoV-2 Mac1 (Severe acute respiratory syndrome coronavirus 2, UniProt P0DTD1). Type of data set: binding. To be noted: 100 μM concentration; ± standard deviation of three replicates.
The next data set deals with human macrodomains. Nature of the data set: FRET profiling against panel of human macrodomains and ARH3. Type of data set: binding.
The target of data set [2] is T1, SARS-CoV-2 Mac1. The data set is described as follows: biochemical. Type of data set: binding. To be noted: for drop in potency relative to 1: from IC50 values.
The next data set has as its system viral macrodomains. Nature of the data set: FRET profiling against panel of other viral macrodomains. It is filed as binding. To be noted: up to 100 μM.
For a further data set, the target named is PARP9 MD1 (Homo sapiens, UniProt Q8IXQ6). The data set is described as follows: FRET profiling / potency against PARP9 MD1. Type of data set: binding.
In another data set the target is T2, ALC1 (Homo sapiens, UniProt Q86WJ1).
T2 sequence (Q86WJ1 704-897 limits assumed): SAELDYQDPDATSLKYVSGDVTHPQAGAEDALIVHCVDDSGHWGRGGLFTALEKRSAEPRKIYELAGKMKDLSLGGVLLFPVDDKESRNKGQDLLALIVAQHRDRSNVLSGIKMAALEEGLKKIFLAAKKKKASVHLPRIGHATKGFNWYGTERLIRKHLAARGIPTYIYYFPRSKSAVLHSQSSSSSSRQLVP
The data set is described as follows: FRET profiling / potency against ALC1 with YFP-GAP(PAR). It is filed as binding. To be noted: for inhibition at 1000 µM: read-out: maximum inhibition.

A further data set relates to L929 cells. Nature of the data set: MTT cell viability assay, L929 cells. It is filed as cell-based, mouse. To be noted: 24 hours. As to the method:
(§1) DBT, L929, and Calu-3 cells were treated with 27 for 24 hours. Cellular metabolic activity was assessed using a CyQUANT MTT Cell Proliferation Assay (Thermo Fisher Scientific) following manufacturer’s instructions.
Background: Tetrazolium dyes change colour on reduction, which living cells bring about.

The test system of a further data set is DBT cells. The data set is described as follows: MTT cell viability assay, DBT cells. It is filed as cell-based, mouse. To be noted: 24 hours. As to the method: as §1
Another data set deals with Calu-3 cells. Nature of the data set: MTT cell viability assay, Calu-3 cells. To be noted: 24 hours. Type of data set: cell-based, human. As to the method: as §1
The target of data set [3] is macrodomains from SARS-CoV (Severe acute respiratory syndrome coronavirus, UniProt P0C6X7).
For data set [4], the target named is macrodomains from MERS-CoV (Middle East respiratory syndrome-related coronavirus, UniProt K9N7C7). The data set is described as follows: biochemical. It is filed as binding.
The test system of a further data set is SARS-CoV-2. The data set is described as follows: SARS-CoV-2 replication in Calu-3 cells with or without IFNγ, plaque assay. It is filed as cell-based. To be noted: 48 hpi. On the procedure: Cells were infected with recombinant MHV-JHM or SARS-CoV-2 at a multiplicity of infection (MOI) of 0.1 PFU/cell with a 45–60 min adsorption phase, unless otherwise stated. Progeny cell-associated and cell-free virus was collected at indicated timepoints and viral titers were determined by plaque assay on Hela-MHVR (MHV) or Vero E6 (SARS-CoV-2) cells. All statistical analysis for viral infections was performed using GraphPad Prism software with an ordinary one-way ANOVA with a Dunnet’s test to correct for multiple comparisons to assess differences between treated and untreated samples. Graphs are expressed as means ± standard errors of the means. The n value represents the number of biological replicates for each group. Significant p values were denoted with asterisks. *, p≤0.05; **, p≤0.01, ***, p≤0.001, ****, p≤0.0001.

The mark [5] stands for this setting: IC50, FRET assay, SARS-CoV-2 Mac1, text and Fig. 1C.
[6] abbreviates: FRET assay, SARS-CoV-2 Mac1, text and Fig. 1C, read-out: IC50.
Setting [7] is: FRET assay, SARS-CoV-2 Mac1, text and Fig. 1C.
Where [8] appears, read: IC50 (pIC50 ± SEM): IC50, Table 2, synthesized analogs, n=3.
Where [9] appears, read: Table 1, commercial analogs, n=3, given with negative sign, read-out: IC50 (pIC50 ± SEM): pIC50 ± SEM (converted).
Where [10] appears, read: Table 2, synthesized analogs, n=3, read-out: IC50 (pIC50 ± SEM): IC50 (converted).

Chain of macrodomains from MERS-CoV (K9N7C7 1110-1276 limits assumed): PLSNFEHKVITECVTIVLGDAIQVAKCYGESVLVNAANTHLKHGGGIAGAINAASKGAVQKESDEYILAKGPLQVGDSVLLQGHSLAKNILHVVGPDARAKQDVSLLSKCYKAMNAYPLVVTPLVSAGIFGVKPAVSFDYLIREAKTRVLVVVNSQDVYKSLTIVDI

On to `Nc1ncnc2c1ncn2[C@H]1O[C@@H](COP(=O)(O)OP(=O)(O)OC[C@H]2O[C@@H](O)[C@H](O)[C@@H]2O)[C@H](O)[C@@H]1O` [ADP-ribose, reference compound], for which the thermal shift (ΔTm) (as a rule, the change in melting temperature against a reference sample) on SARS-CoV-2 Mac1 [1] came to 2.0 ± 0.14 °C.

Take `COC(=O)c1c(NC(=O)C2CC=CCC2C(=O)O)sc2c1CCCCC2` (stereo not shown) [Compound 1, 6-{[3-(methoxycarbonyl)-5,6,7,8-tetrahydro-4H-cyclohepta[b]thiophen-2-yl]carbamoyl}cyclohex-3-ene-1-carboxylic acid]: the “inhibition of human macrodomains” value in the data set on human macrodomains (10 μM and 100 μM) is listed as “selective towards Mac1 over all human macrodomains”. The negative logarithm of the IC50 (pIC50) (as a rule, the IC50 on a negative log10 scale, so that one unit is a factor of ten) at SARS-CoV-2 Mac1 [2] (setting [5]) is 4.85; on PARP9 MD1 it was 4.19; at ALC1 (partial inhibition only, read-out: IC50), 5.17. Further, the “inhibition of other tested viral macrodomains” value in the data set on viral macrodomains is recorded as “did not show effective inhibition”. The inhibition – broadly, the relative decrease from the control value, in per cent – at 100 µM at PARP9 MD1 (100 μM) is not below 70%; against ALC1, not below 50%. For the same molecule, the inhibition at 1000 µM at ALC1 is 58%.

For `COC(=O)c1c(NC(=O)CCC(=O)O)sc2c1CCCCC2` [Compound 2], the negative-log IC50 (pIC50) at SARS-CoV-2 Mac1 [2] (setting [6]) is 4.32. For the same molecule, at SARS-CoV-2 Mac1 [2], the “drop in potency relative to 1” value is recorded as 3.5 fold. At SARS-CoV-2 Mac1 [1], the thermal shift (ΔTm) turned out to be 0.3 ± 0.12 °C.

Regarding `COC(=O)c1c(NC(=O)c2ccccc2C(=O)O)sc2c1CCCC2` [Compound 3, 2-{[3-(methoxycarbonyl)-4,5,6,7-tetrahydro-1-benzothiophen-2-yl]carbamoyl}benzoic acid], the negative logarithm of the IC50 (pIC50) on SARS-CoV-2 Mac1 [2] (setting [6]) is 3.96. Also, the “drop in potency relative to 1” value at SARS-CoV-2 Mac1 [2] was determined as 7 fold. Moreover, the ΔTm on SARS-CoV-2 Mac1 [1] worked out at 0.7 ± 0.24 °C.

On to `COC(=O)c1c(NC(=O)C2C3CCC(CC3)C2C(=O)O)sc2c1CCCC2` (stereo not shown) [Compound 12], for which the IC50 (usually the concentration at which inhibition is half-maximal) at SARS-CoV-2 Mac1 [2] (setting [7]) is “completely abolished the inhibitory effect”; on SARS-CoV-2 Mac1 [2] (Table 1, commercial analogs, n=3, read-out: IC50 (pIC50 ± SEM): IC50 (converted)), more than 100 µM.

On to `COC(=O)c1c(NC(=O)C2CCCCC2C(=O)O)sc2c1CCCCC2` (stereo not shown) [Compound 15r, 2-{[3-(methoxycarbonyl)-4H,5H,6H,7H,8H-cyclohepta[b]thiophen-2-yl]carbamoyl}cyclohexane-1-carboxylic acid], for which the negative logarithm of the IC50 (pIC50) at SARS-CoV-2 Mac1 [2] (setting [8]) is 5.20; at SARS-CoV-2 Mac1 [2] (setting [5]), 5.19.

Turning to `COC(=O)c1c(NC(=O)C2CCCCC2C(=O)O)sc2c1CCC2` (stereo not shown) [Compound 16], on SARS-CoV-2 Mac1 [2] (setting [9]), the half-inhibitory concentration (IC50) was 21.9 µM.

For the molecule `COC(=O)c1c(NC(=O)C2CCCCC2C(=O)O)sc2c1CCCC2` (stereo not shown) [Compound 17], on SARS-CoV-2 Mac1 [2] (setting [9]), the half-maximal inhibitory concentration (IC50) is 18.6 µM.

For the molecule `N#Cc1c(NC(=O)C2CC=CCC2C(=O)O)sc2c1CCCCC2` (stereo not shown) [Compound 21, 6-[(3-cyano-5,6,7,8-tetrahydro-4H-cyclohepta[b]thiophen-2-yl)carbamoyl]cyclohex-3-ene-1-carboxylic acid], the figures for the half-inhibitory concentration (IC50) result on SARS-CoV-2 Mac1 [2] (setting [7]) and at SARS-CoV-2 Mac1 [2] (setting [10]) were “inactive” and more than 100 µM, respectively.

On to `CC(=O)c1c(NC(=O)C2CC=CCC2C(=O)O)sc2c1CCCCC2` (stereo not shown) [Compound 22, 6-[(3-acetyl-5,6,7,8-tetrahydro-4H-cyclohepta[b]thiophen-2-yl)carbamoyl]cyclohex-3-ene-1-carboxylic acid], for which the IC50 entry at SARS-CoV-2 Mac1 [2] (setting [7]) was “inactive”; on SARS-CoV-2 Mac1 [2] (setting [10]) it was more than 100 µM.

Consider `COC(=O)c1c(NC(=O)C2CC=CCC2C(=O)OC)sc2c1CCCCC2` (stereo not shown) [Compound 23, Methyl 2-[6-(methoxycarbonyl)cyclohex-3-ene-1-amido]-4H,5H,6H,7H,8H-cyclohepta[b]thiophene-3-carboxylate], for which the IC50 at SARS-CoV-2 Mac1 [2] (Table 2, synthesized analogs, n=3, given with negative sign, read-out: IC50 (pIC50 ± SEM): pIC50 ± SEM (converted)) is 10.7 µM.

For the molecule `O=C(O)c1c(NC(=O)C2CCCCC2C(=O)O)sc2c1CCCCC2` (stereo not shown) [Compound 24, 2-[(2-carboxycyclohexane-1-carbonyl)amino]-5,6,7,8-tetrahydro-4H-cyclohepta[b]thiophene-3-carboxylic acid], the 50% inhibitory concentration (IC50) result at SARS-CoV-2 Mac1 [2] (setting [7]) is “without inhibitory activity”; on SARS-CoV-2 Mac1 [2] (setting [10]), more than 100 µM.

On to `COC(=O)c1c(NC(=O)[C@H]2CCCC[C@@H]2C(=O)O)sc2c1CCCCC2` [Compound 25, (1S,2S)-2-{[3-(methoxycarbonyl)-4H,5H,6H,7H,8H-cyclohepta[b]thiophen-2-yl]carbamoyl}cyclohexane-1-carboxylic acid], for which the negative-log IC50 (pIC50) against SARS-CoV-2 Mac1 [2] (setting [8]) was less than 4.00.

With `COC(=O)c1c(NC(=O)[C@@H]2CCCC[C@H]2C(=O)O)sc2c1CCCCC2` [Compound 26, (1R,2R)-2-{[3-(methoxycarbonyl)-4H,5H,6H,7H,8H-cyclohepta[b]thiophen-2-yl]carbamoyl}cyclohexane-1-carboxylic acid], the negative logarithm of the IC50 (pIC50) against SARS-CoV-2 Mac1 [2] (setting [8]) was 5.57; against SARS-CoV-2 Mac1 [2] (IC50 (pIC50 ± SEM): pIC50 ± SEM, Table 2, synthesized analogs, n=3, given with negative sign), 5.56.

As to `COC(=O)c1c(NC(=O)[C@@H]2CCCC[C@H]2C(=O)O)sc2c1CCCCCC2` [Compound 27, (1R,2R)-2-{[3-(methoxycarbonyl)-4H,5H,6H,7H,8H,9H-cycloocta[b]thiophen-2-yl]carbamoyl}cyclohexane-1-carboxylic acid], in the data set with L929 cells, the “cytotoxicity / viability (MTT)” value is on record as “does not affect the viability; also recorded: did not have any cellular cytotoxicity”. In addition, the “cytotoxicity / viability (MTT)” value in the data set on DBT cells is recorded as “does not affect the viability; also recorded: did not have any cellular cytotoxicity”. In addition, the “cytotoxicity / viability (MTT)” value with Calu-3 cells is reported as “does not affect the viability; also recorded: did not lead to any cytotoxicity”. The molecule further came in with an inhibition % in data set [3] of 64%. The “inhibition of human macrodomains” value in the data set on human macrodomains was “did not show effective inhibition”. In data set [4], this molecule showed a pIC50 of less than 4.00 and an inhibition % of 43%. For the same molecule, at ALC1, the negative-log IC50 (pIC50) is 5.52, the inhibition at 10 µM is not below 50%, the inhibition at 100 µM was not below 50% and the inhibition at 1000 µM is 63%. Further, the “antiviral effect on SARS-CoV-2” value with SARS-CoV-2 (absence of IFNγ) is “minimal, if any, antiviral effects”. Besides, the “reduction in virus replication” value with SARS-CoV-2 (presence of IFNγ (100 U/ml), 25 μM) is listed as 10–15 fold.

Take `COC(=O)c1c(NC(=O)[C@@H]2CCCC[C@H]2C(=O)OC)sc2c1CCCCCC2` [Compound 28, Methyl 2-[(1R,2R)-2-(methoxycarbonyl)cyclohexaneamido]-4H,5H,6H,7H,8H,9H-cycloocta[b]thiophene-3-carboxylate]: the IC50 result at SARS-CoV-2 Mac1 [2] (setting [7]) is “completely inactive”; at SARS-CoV-2 Mac1 [2] (setting [10]), more than 100 µM.
